In patent US11964955B2, “Mixtures of cannabinoid compounds, and production and use thereof” (priority 2015, dated 2024):
Entries after “also recorded” stand apart in the source; their conditions may differ. Read-outs that look alike come from different tables or passages of the source.

Tests used:
CB2 receptor [1] = conditions: Pertwee et al. Pharmacol. Rev. 2010; read-out: CB2 affinity (dissociation constant) listed in the literature; cited from earlier work
CB1 receptor [2] = target: T1, CB1 receptor (Homo sapiens, UniProt P21554); assay: biochemical; format: binding; design: purchased RBHCB1M400UA
CB1 receptor [3] = target: T1, CB1 receptor; assay: Signal transmission (CRE-luciferase) in CHO-CB1-CREluc cells, agonism and antagonism versus WIN; conditions: for Functional effect at the CB1 receptor (in words): text and FIGS. 4 to 6
CB2 receptor [4] = target: T2, CB2 receptor (Homo sapiens, UniProt P34972); assay: Signal transmission (CRE-luciferase, forskolin) in CHO-CB2-CREluc cells, agonism; conditions: for Functional effect at the CB2 receptor (in words): FIGS. 2 and 3
CB2 receptor [5] = target: T2, CB2 receptor; assay: Competition binding study with [3H]-CP55940 on membranes of CB2-transfected human cells; design: purchased RBXCB2M400UA; conditions: for Ki: mean +/- SEM, [3H]-CP55940 0.15 nM, triplicates; for Selectivity for CB2 compared to CB1 (fold): ratio of Ki CB1 to Ki CB2; for CB2 (% Binding): screening with a single high dose, displacement of [3H]-CP55940 0.15 nM

T2 sequence (P34972 whole entry): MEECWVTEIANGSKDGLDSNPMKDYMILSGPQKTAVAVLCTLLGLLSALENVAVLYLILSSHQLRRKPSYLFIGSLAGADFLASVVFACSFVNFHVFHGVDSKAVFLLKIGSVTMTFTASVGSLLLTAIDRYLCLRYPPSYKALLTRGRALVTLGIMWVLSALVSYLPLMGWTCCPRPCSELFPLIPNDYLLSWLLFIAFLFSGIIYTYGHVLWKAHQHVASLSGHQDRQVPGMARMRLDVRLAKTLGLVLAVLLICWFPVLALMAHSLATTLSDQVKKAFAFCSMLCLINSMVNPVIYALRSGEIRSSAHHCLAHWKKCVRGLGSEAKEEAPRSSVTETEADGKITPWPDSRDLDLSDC
T1 sequence (P21554 whole entry): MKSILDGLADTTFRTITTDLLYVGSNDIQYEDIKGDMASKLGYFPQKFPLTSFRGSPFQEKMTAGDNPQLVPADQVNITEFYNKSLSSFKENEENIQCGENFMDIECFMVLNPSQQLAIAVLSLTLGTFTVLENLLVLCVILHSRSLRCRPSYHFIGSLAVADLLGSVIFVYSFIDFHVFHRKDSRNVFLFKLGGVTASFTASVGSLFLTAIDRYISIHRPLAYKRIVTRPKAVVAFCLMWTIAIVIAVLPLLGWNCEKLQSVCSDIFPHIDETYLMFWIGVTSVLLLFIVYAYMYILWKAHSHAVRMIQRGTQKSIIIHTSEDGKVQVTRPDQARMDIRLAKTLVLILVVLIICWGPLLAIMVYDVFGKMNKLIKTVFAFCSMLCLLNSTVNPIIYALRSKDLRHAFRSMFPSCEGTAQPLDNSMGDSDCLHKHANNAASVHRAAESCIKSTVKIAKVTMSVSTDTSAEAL

| SMILES | Ki (CB2 receptor [1]) | Binding to CB1 receptor (in words) (CB1 receptor [2]) | CB1 (% Binding) (CB1 receptor [2]) | Ki (CB1 receptor [2]) | Agonism and antagonism at CB1 (CB1 receptor [3]) | Functional effect at the CB1 receptor (in words) (CB1 receptor [3]) | Agonism and antagonism at CB2 (CB2 receptor [4]) | Binding to CB2 receptor (in words) (CB2 receptor [5]) | Ki (CB2 receptor [5]) | Selectivity for CB2 compared to CB1 (fold) (CB2 receptor [5]) | CB2 (% Binding) (CB2 receptor [5]) | Ki (CB1 receptor [2]; read-out: Ki for CB1) | Functional effect at the CB2 receptor (in words) (CB2 receptor [4]) |
| --- | --- | --- | --- | --- | --- | --- | --- | --- | --- | --- | --- | --- | --- |
| C=C(C)[C@@H]1CCC(C)C=C1c1c(O)cc(CCC)c(C(=O)OCCCCCC)c1O (stereo partly shown) [HCBDV, hexylcannabidivarinolat] |  | strong binding to the receptors within the lower nanomolar range | 91.1% (n = 4) | 8.28 ± 0.69 nM | ++ | selective activation of CB1 receptors; also recorded: Dose-dependent agonism | 0 | strong binding to the receptors within the lower nanomolar range | 9.91 ± 2.46 nM | 0.8 fold | 98.5% (n = 3) |  |  |
| C=C(C)[C@@H]1CCC(C)=C[C@H]1c1c(O)cc(CCC)c(C(=O)OCCO)c1O [HECBDV, 2-hydroxyethylcannabidivarinolat] |  |  | 43.3% (n = 5) |  | − | inhibited; also recorded: Dose-dependent antagonism | ++ |  | 168 ± 39.4 nM | 33.6 fold | 95.0% (n = 3) | 5650 ± 3900 nM | selective agonist; also recorded: Dose-dependent agonism |
| C=C(C)[C@@H]1CCC(C)C=C1c1c(O)cc(CCC)c(C(=O)OC2CCCCC2)c1O (stereo partly shown) [CHCBDV, cyclohexylcannabidivarinolat] |  | strong binding to the receptors within the lower nanomolar range | 82.4% (n = 4) | 13.2 ± 0.85 nM | ++ | CB1 and CB2 agonist; also recorded: Dose-dependent agonism | ++ | strong binding to the receptors within the lower nanomolar range | 4.62 ± 0.46 nM | 2.9 fold | 99.9% (n = 3) |  | CB1 and CB2 agonist; also recorded: Dose-dependent agonism |
